Results from ChEMBL document CHEMBL4622874, “Discovery of ORN0829, a potent dual orexin 1/2 receptor antagonist for the treatment of insomnia” (Bioorg Med Chem, 2020).
Calls of active or inactive are those of the source. The calls are words filed in the database; no cut-off is given here.

Key:
[1] = Half-life in human plasma at 40 mg,po administered once daily; format: ADME, cell-free
[2] = target: T1, Orexin/Hypocretin receptor type 1 (Homo sapiens, UniProt O43613); assay: Antagonist activity at human recombinant OX1R expressed in CHOK1 cells assessed as inhibition of orexin A-induced intracellular Ca2+ release preincubated for 30 mins followed by orexin-A stimulation by Fluo4-AM dye based fluorescence analysis; format: functional, cell-based, CHO-K1
T1 sequence (O43613 whole entry): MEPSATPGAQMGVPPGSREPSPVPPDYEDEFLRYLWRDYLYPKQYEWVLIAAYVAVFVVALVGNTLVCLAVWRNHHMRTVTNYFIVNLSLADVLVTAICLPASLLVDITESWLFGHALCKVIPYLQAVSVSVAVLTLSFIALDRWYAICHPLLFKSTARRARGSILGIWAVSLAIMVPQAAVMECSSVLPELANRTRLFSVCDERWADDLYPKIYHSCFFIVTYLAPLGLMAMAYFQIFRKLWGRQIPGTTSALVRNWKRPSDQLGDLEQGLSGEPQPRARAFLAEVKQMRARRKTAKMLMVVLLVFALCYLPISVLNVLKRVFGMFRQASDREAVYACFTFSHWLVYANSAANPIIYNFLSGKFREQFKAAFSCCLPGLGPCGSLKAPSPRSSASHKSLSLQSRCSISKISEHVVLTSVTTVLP

Orexin receptor type 2 = target: T2, Orexin receptor type 2 (Homo sapiens, UniProt O43614); assay: Antagonist activity at human recombinant OX2R expressed in CHOK1 cells assessed as inhibition of orexin A-induced intracellular Ca2+ release preincubated for 30 mins followed by orexin-A stimulation by Fluo-4AM dye based fluorescence analysis; format: functional, cell-based, CHO-K1
T2 sequence (O43614 whole entry): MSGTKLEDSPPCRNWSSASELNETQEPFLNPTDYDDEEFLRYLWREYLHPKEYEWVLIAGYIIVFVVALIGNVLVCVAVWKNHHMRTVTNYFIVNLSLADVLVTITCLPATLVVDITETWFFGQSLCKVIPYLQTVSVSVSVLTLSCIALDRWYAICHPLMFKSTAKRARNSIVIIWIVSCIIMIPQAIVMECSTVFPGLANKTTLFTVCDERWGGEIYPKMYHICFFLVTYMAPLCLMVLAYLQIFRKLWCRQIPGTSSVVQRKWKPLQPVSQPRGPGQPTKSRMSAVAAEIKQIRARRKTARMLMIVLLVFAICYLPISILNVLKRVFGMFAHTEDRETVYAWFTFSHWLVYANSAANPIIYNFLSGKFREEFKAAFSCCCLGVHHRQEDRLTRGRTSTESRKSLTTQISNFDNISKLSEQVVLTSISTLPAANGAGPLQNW

[3] = Lipophilicity, log D of the compound at pH 7.4 by HPLC analysis; format: physicochemical; conditions: buffer
[4] = Half-life in dog at 0.5 mg/kg, iv; format: ADME, organism-based, Canis lupus familiaris; conditions: in vivo
[5] = Half-life in Sprague-Dawley rat at 2 mg/kg, iv; format: ADME, organism-based; conditions: in vivo
Rattus norvegicus [6] = assay: Sleep-promoting activity in ip dosed Wistar rat by polysomnography; format: functional; conditions: read-out: MED
[7] = Drug metabolism in human liver microsomes incubated for 15 mins; format: ADME, Microsome; conditions: read-out: Drug metabolism
P-gp (ABCB1) = P-gp (ABCB1) (Homo sapiens, UniProt P08183); assay: Substrate activity at P-gp (unknown origin) assessed as efflux ratio; format: ADME; conditions: not told
Sequence of P-gp (ABCB1) (P08183 whole entry): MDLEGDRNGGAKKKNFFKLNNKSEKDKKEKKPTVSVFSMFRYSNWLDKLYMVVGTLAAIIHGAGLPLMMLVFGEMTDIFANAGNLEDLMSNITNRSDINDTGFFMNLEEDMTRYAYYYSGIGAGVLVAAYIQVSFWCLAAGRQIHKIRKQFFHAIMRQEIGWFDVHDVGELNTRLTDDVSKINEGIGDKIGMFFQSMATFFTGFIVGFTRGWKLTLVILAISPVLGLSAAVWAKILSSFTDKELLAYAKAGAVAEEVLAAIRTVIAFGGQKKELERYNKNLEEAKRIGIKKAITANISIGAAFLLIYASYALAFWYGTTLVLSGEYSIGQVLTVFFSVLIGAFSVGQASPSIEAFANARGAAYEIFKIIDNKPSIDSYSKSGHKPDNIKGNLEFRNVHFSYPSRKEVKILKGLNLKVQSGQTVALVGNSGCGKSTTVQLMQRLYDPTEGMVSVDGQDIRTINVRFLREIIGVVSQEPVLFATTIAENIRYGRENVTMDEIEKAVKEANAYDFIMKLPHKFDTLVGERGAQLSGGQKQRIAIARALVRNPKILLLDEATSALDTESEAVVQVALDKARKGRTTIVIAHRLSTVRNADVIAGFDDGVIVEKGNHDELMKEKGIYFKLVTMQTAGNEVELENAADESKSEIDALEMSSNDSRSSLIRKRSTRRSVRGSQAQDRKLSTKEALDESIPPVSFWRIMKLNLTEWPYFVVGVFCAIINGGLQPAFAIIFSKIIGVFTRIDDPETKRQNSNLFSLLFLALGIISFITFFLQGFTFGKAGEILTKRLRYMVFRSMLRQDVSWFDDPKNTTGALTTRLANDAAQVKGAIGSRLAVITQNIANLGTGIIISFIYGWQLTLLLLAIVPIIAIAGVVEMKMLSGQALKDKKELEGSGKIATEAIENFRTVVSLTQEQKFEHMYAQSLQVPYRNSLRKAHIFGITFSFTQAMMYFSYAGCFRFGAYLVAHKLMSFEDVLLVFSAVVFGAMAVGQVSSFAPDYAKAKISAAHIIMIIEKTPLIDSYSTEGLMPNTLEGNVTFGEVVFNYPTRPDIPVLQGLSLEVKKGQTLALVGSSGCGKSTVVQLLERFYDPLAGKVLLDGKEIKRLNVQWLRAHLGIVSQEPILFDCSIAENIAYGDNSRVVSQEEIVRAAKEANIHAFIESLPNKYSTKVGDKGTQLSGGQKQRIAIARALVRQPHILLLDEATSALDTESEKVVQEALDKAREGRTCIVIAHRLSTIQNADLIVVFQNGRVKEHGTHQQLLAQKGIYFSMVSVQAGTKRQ

[8] = Volume of distribution in Sprague-Dawley rat at 1 mg/kg or 2 mg/kg, iv; format: ADME, organism-based; conditions: in vivo
[9] = Volume of distribution in dog at 0.5 mg/kg, iv; format: ADME, organism-based, Canis lupus familiaris; conditions: in vivo
[10] = Clearance in Sprague-Dawley rat at 1 mg/kg or 2 mg/kg, iv; format: ADME, organism-based; conditions: in vivo
[11] = Clearance in dog at 0.5 mg/kg, iv; format: ADME, organism-based, Canis lupus familiaris; conditions: in vivo
[12] = Half-life in Sprague-Dawley rat at 1 mg/kg or 2 mg/kg, iv; format: ADME, organism-based; conditions: in vivo
[13] = Tmax in Sprague-Dawley rat at 3 mg/kg, po; format: ADME, organism-based; conditions: in vivo
[14] = Tmax in dog at 3 mg/kg, po; format: ADME, organism-based, Canis lupus familiaris; conditions: in vivo
[15] = Ratio of drug level in brain to plasma in Sprague-Dawley rat at 3 mg/kg, po; format: ADME, organism-based
[16] = Ratio of drug level in cerebrospinal fluid to plasma in Sprague-Dawley rat at 3 mg/kg, po; format: ADME, organism-based; conditions: csf
[17] = Oral bioavailability in Sprague-Dawley rat at 3 mg/kg; format: ADME, organism-based; conditions: in vivo
[18] = Oral bioavailability in dog at 3 mg/kg; format: ADME, organism-based, Canis lupus familiaris; conditions: in vivo
[19] = Plasma protein binding in Sprague-Dawley rat at 2 ug/mL; format: ADME, cell-free; conditions: read-out: PPB (converted)
[20] = Plasma protein binding in dog at 2 ug/mL; format: ADME, cell-free, Canis lupus familiaris; conditions: read-out: PPB (converted)
Rattus norvegicus [21] = assay: Sleep-promoting activity in Wistar rat assessed as fast sleep onset latency at 1 to10 mg/kg, po administered 10 mins prior to the onset of dark period measured every 20s for 2 hrs by polysomnography; format: functional, organism-based
Rattus norvegicus [22] = assay: Sleep-promoting activity in po dosed Wistar rat assessed as increase in total sleep administered 10 mins prior to the onset of dark period measured every 20s for 2 hrs by polysomnography; format: functional, organism-based
[23] = target: T3, Orexin/Hypocretin receptor type 1 (Rattus norvegicus) (UniProt P56718); assay: Antagonist activity at rat recombinant OX1R expressed in CHOK1 cells assessed as inhibition of orexin A-induced intracellular Ca2+ release preincubated for 30 mins followed by orexin-A stimulation by Fluo4-AM dye based fluorescence analysis; format: functional, cell-based; conditions: CHO-K1
T3 sequence (whole entry): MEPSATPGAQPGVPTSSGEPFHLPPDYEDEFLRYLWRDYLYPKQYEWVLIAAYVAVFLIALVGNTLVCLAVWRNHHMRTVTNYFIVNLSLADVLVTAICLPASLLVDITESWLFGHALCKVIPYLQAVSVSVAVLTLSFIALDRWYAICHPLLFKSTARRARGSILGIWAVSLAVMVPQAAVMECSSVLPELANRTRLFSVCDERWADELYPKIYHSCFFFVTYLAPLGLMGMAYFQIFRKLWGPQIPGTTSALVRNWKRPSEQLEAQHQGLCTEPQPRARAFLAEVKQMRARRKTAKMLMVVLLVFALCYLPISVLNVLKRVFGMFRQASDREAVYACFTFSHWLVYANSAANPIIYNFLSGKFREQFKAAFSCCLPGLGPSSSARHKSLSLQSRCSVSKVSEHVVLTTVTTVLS

[24] = target: T4, Orexin receptor type 2 (Rattus norvegicus) (UniProt P56719); assay: Antagonist activity at rat recombinant OX2R expressed in CHOK1 cells assessed as inhibition of orexin A-induced intracellular Ca2+ release preincubated for 30 mins followed by orexin-A stimulation by Fluo4-AM dye based fluorescence analysis; format: functional, cell-based; conditions: CHO-K1
T4 sequence (whole entry): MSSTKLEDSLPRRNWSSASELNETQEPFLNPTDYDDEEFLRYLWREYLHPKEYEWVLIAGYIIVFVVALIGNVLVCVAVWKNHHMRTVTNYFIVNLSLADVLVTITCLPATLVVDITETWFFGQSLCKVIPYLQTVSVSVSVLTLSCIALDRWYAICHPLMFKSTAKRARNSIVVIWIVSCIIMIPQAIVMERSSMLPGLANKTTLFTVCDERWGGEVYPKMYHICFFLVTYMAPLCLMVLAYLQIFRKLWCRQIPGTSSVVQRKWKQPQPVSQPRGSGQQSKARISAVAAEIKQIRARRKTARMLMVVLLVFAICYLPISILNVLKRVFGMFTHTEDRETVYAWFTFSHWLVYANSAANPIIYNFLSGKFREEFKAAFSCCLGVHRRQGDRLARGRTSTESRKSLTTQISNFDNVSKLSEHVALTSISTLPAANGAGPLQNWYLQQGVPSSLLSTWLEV

[25] = Chemical stability of the compound in JP 1st fluid at pH 1.2 at 37 degC incubated for 24 hrs; format: physicochemical; conditions: buffer, pH 1.2, 24 h
[26] = Drug metabolism in dog liver microsomes incubated for 15 mins; format: ADME, Canis lupus familiaris, Microsome; conditions: read-out: Drug metabolism
[27] = Drug metabolism in rat liver microsomes incubated for 15 mins; format: ADME, Microsome; conditions: read-out: Drug metabolism
[28] = Drug uptake in cerebrospinal fluid in Sprague-Dawley rat at 3 mg/kg, po measured after 1 hr; format: ADME, organism-based; conditions: read-out: Drug uptake
Rattus norvegicus [29] = assay: Sleep-promoting activity in po dosed Wistar rat administered 10 mins prior to the onset of dark period measured every 20s for 2 hrs by polysomnography; format: functional; conditions: read-out: MED
[30] = Half-life in human at 10 to 80 mg, po administered as single dose; format: ADME, organism-based; conditions: in vivo
[31] = Half-life in human; format: ADME

Question: With `Cc1ccc(-n2nccn2)c(C(=O)N2CCN(c3nc4cc(Cl)ccc4o3)CC[C@H]2C)c1` [SUVOREXANT] as the molecule, how does the half-life [1] read?
Answer: 12 h

Question: With `CCN(CCn1ccc(-c2ccc(F)cn2)n1)C(=O)c1ccccc1-n1nccn1` as the molecule, how does the IC50 [2] read?
Answer: 20.6 nM

Question: What about the IC50 (Orexin receptor type 2) of the same molecule?
Answer: 38.7 nM

Question: What about the logD [3] of the same molecule?
Answer: 2.53

Question: What about the half-life [4] of the same molecule?
Answer: 1.07 h

Question: And the half-life [5]?
Answer: 0.412 h

Question: And the minimal effective dose (Rattus norvegicus [6])?
Answer: 3 mg/kg

Question: Which results are given for `Cc1ccc(-n2nccn2)c(C(=O)N2CCCO[C@H]2Cn2ccc(-c3ccc(F)cn3)n2)c1`?
Answer: IC50 [2]: 1.05 nM; IC50 (Orexin receptor type 2): 1.27 nM; metabolised at 0.25 h [7]: 34.4%; efflux ratio (P-gp (ABCB1)): 2.43; logD [3]: 2.58; Vd [8]: 0.853 L/kg; Vd [9]: 0.294 L/kg; clearance [10]: 39.5 mL/min/kg; clearance [11]: 2.65 mL/min/kg; half-life [12]: 0.238 h; half-life [4]: 1.16 h; Tmax [13]: 0.333 h; Tmax [14]: 0.583 h; Ratio [15]: 13.5%; Ratio [16]: 3.1%; bioavailability [17]: 5.5%; bioavailability [18]: 61.6%; fraction unbound at 2 ug/mL [19]: 0.12; fraction unbound at 2 ug/mL [20]: 0.036; Activity (Rattus norvegicus [21]): Active; Activity (Rattus norvegicus [22]): Dose-dependent effect; Kb [23]: 0.44 nM; Kb [24]: 0.8 nM; Stability [25]: Stable; metabolised at 0.25 h [26]: 10.5%; metabolised at 0.25 h [27]: 51%; concentration at 1 h [28]: 2.23 nM; minimal effective dose (Rattus norvegicus [29]): 1 mg/kg

Question: Which half-life [30] does the source give for `Cc1cc(C)nc(N2CC3CN(C(=O)c4c(F)cccc4-n4nccn4)CC3C2)n1` (configuration not stated) [SELTOREXANT] here?
Answer: 2 h

Question: With `COc1ccc(-n2nccn2)c(C(=O)N2CCC[C@@]2(C)c2nc3c(C)c(Cl)ccc3[nH]2)c1` [DARIDOREXANT] as the molecule, how does the half-life [31] read?
Answer: 6 h
